Reference: patent US8034923B1, “Reagents for reversibly terminating primer extension” (priority 2009, dated 2011)

Key:
[1] = Treatment of natural nucleosides with aqueous nitrous acid (control, decomposition by HPLC); format: physicochemical; details: 700 mM NaNO2, 1 M NaOAc, pH 5.5, room temperature; for oxidation 2 min (extrapolated): extrapolated to 2 min
Description: (§1) To an aqueous solution of 3′-O-aminothymidine (1b, 20 mM, 2 μL) was added aqueous nitrous acid (350-700 mM NaNO2/1 M NaOAc, 50 μL, pH 5.5-5.75). The resulting pH was measured with a microelectrode (accuracy ca. ±0.02). After 1 or 2 min at room temperature, the reaction was quenched by the addition of K-phosphate buffer (1 M, 200 μL, pH 7), and analyzed by analytical reverse-phase HPLC (Waters NovaPak C-18 4 μm, 3.9×150 mm, with guard column Waters NovaPak C-18 4 μm, 3.9×15 mm, eluent A=25 mM TEAA pH 7, eluent B=acetonitrile, gradient from 3% B to 13% B in 20 min, flow rate=0.5 mL/min, Rt=product: 8 min; starting material: 11 min.). The amount of cleavage was determined by integrating (267 nm) the peaks of the remaining 1b and the product (thymidine). The rates are as follows: As control, the natural nucleosides were treated as follows: An aqueous solution of 2′-deoxyguanosine or 2′-deoxyadenosine or 2′-deoxycytidine (20 mM, 30 μL) was treated with aqueous nitrous acid (700 mM NaNO2, 1 M NaOAc, pH 5.5, 500 μL) at room temperature for 72 h (i.e. 4320 min). An aliquot (50 μL) was removed, neutralized by the addition of K-phosphate buffer (1 M, 200 μL, pH 7), and analyzed by analytical reverse-phase HPLC (Waters NovaPak C-18 4 μm, 3.9×150 mm, with guard column Waters NovaPak C-18 4 μm, 3.9×15 mm. eluent A=25 mM TEAA pH 7, eluent B=acetonitrile, gradient from 0% B to 3% B in 10 min, then to 30% B in 20 min, flow rate=0.5 mL/min, Rt=dG: 14 min, dA: 18 min, dC: 8 min). The amount of decomposition was determined by integrating (260 nm) the peaks of the remaining starting material (nucleoside) and the product(s).

[2] = Cleavage of 3′-O-aminothymidine 1b with aqueous HONO and no cosolvent; format: physicochemical
Description: as §1

[3] = system: 93 Taq polymerase variants from PD library; assay: Standing start primer-extension assay, PD library screen; format: biochemical; details: 100 μM triphosphate, 72° C., 2 min
Description: (§2) Gamma-^32P-labeled primer SEQ ID 1 (2.5 pmol), cold primer SEQ ID 1 (22.5 pmol) and template SEQ ID 2 (30 pmol) were annealed by incubation at 95° C. for […] in NEB ThermoPol Reaction Buffer (20 mM Tris-HCl, 10 mM KCl, 10 mM (NH4)2SO4, 2 mM MgSO4, 0.1% TritonX-100) and slowly cooled to room temperature, followed by the addition of Taq cell-free extract (4 μL, the sole source of polymerase). Then, the mixture (final volume 10 μL) was pre-heated to 72° C. (30 sec), and the extension was initiated by adding either reversibly terminated or irreversibly terminated nucleoside triphosphates (final concentration of 100 μM) or both. After 2 mM, the reaction was quenched by 10 mM EDTA in formamide loading buffer (20 μL) and was resolved on a 14% PAGE (FIGS. 8 and 9).
(§3) 93 Taq polymerase variants from PD library (Table 1) were tested for their ability to incorporate TTP-ONH2. Co-Taq polymerase and the Taq polymerase from New England Biolabs were also tested in parallel as controls. […] Of these variants, eight extended the primer by more than 50% to N+1, performing better than Co-Taq.
To explore the potential of these variant polymerases to incorporate the corresponding 2′-, 3′-dideoxynucleotide, they were challenged with ddTTP (FIG. 9). A total of 27 variant polymerases were able to incorporate ddTTP to a detectable extent, while three of these variants converted more than 50% of the primer to n+1 product.

[4] = biological target: T1, PD-42 (Taq A597T, L616A, F667Y, E745H) (Thermus aquaticus, UniProt P19821, A597T/E745H/F667Y/L616A); assay: Primer extension / fidelity test with PD-42; format: biochemical; details: 100 μM, 72° C.
T1 construct: made in house; pASK-IBA43plus vector
Description: as §2
In a 10 μL reaction volume, γ^32P-labeled primer SEQ ID 1([…]), cold primer SEQ ID 1 ([…]) and four kinds of 36 nt long template ([…]) (see above) were annealed respectively by incubation at 95° C. for 5 min and slow cooled to room temperature. 1 (0.25 μg/μL) of PD-42 and 58 (polymerases were purified by Qiagen Ni-NTA Spin Kit) were then added to reactions and incubated at 72° C. for 2 min. Reactions were initiated by the addition of dNTP-ONH2 or ddNTP (Final concentration of 100 μM) (refer to FIG. 13 for specifics) and were resolved on a 14% PAGE.
Two of the 93 variants that performed well with both dTTP-3′-ONH2 and ddTTP were further examined: PD-42 (A597T, L616A, F667Y, E745H) and PD-58 (E520G, K540I, L616A).

[5] = biological target: Terminal Transferase (TdT) (Bos taurus, UniProt P06526); assay: Tailing of reversible terminators using terminal transferase; format: biochemical; details: 5 μM to 250 μM terminator, 37° C., 1 hour, 8% PAGE
Description: The oligonucleotide SEQ ID 1 was ^32P-5′ labeled using OptiKinase (USB Corporation). Pyrimidine tailing buffer reactions (20 μL) contained 100 mM cacodylate buffer (pH 7.1), 2 mM CoCl2, 0.1 mM DTT, […] of radiolabeled template (0.5 μM), 10 units of Terminal Transferase (TdT), and varying amounts of reversible terminator from 5 μM to 250 μM. Samples were incubated at 37° C. for 1 hour and were terminated by heating at 70° C. for 10 min. Samples were resolved on 8% PAGE. […] If treated with TdT and a composition of the instant invention, the ssDNA would be derivatized with a 3′-ONH2 group. This could then be captured by an aldehyde affixed to a solid support.

[6] = biological target: T2, PD-58 (E520G, K540I, L616A) (Thermus aquaticus, UniProt P19821, E520G/K540I/L616A); assay: Primer extension / fidelity test with PD-58; format: biochemical; details: 100 μM, 72° C.
T2 construct: made in house; pASK-IBA43plus vector
Description: To determine whether HONO could cleave the 3′-terminal ONH2 group from a template-bound oligonucleotide and permit subsequent primer extension in a cycle of the type needed for sequencing using cyclic reversible termination, a 5′-biotinylated template that called for incorporation of two consecutive T's opposite the two consecutive template A′ s was used. Streptavidin on magnetic beads was used to recover products. In the first cycle, beads were incubated (72° C., 2 min) with PD-58 polymerase in the presence of T-ONH2 triphosphate (100 μM). Then, the products were treated with buffered sodium nitrite/HONO to cleave the —ONH2 group, generating a free 3′-OH group. […] This was indicated by a slower moving band arising from the reversibly terminated N+1 product.
as §2, with “After 2 mM, the reaction was quenched by 10 mM EDTA in formamide loading buffer (20 μL) and was resolved on a 14% PAGE (FIGS. 8 and 9).” left out

[7] = biological target: T3, Taq polymerase from New England Biolabs (Thermus aquaticus, UniProt P19821); assay: Standing start primer-extension assay; format: biochemical; details: 100 μM triphosphate, 72° C., 2 min
T3 construct: purchased New England Biolabs
Description: as §2, §3

[8] = [HONO] 700 mM, pH 5.50, room temperature

T1 sequence (P19821 whole entry A597T/L616A/F667Y/E745H): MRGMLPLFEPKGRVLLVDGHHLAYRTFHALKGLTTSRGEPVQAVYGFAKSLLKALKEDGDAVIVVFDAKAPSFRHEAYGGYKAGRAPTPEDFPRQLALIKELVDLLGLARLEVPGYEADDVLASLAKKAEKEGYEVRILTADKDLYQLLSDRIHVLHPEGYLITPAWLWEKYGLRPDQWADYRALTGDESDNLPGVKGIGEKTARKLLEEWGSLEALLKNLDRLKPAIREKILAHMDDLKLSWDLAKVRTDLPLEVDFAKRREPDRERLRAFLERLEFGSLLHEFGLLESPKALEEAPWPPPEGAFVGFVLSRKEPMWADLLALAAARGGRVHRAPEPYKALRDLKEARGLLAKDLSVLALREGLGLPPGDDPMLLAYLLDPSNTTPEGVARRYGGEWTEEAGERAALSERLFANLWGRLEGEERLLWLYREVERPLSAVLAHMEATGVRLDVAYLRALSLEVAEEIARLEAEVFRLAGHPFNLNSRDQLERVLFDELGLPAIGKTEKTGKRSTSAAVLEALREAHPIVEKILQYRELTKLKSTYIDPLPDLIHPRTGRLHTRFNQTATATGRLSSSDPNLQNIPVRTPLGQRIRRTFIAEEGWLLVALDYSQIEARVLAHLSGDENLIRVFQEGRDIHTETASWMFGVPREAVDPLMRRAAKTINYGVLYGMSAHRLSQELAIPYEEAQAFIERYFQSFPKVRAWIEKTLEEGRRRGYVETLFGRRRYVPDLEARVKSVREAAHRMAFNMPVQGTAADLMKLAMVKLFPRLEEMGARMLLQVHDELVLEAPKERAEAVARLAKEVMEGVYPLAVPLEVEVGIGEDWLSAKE
T2 sequence (P19821 whole entry E520G/K540I/L616A): as the sequence (P19821 whole entry A597T/L616A/F667Y/E745H) above, with E520G, K540I, T597A, Y667F, H745E counted along it
Terminal Transferase (TdT), sequence (P06526 whole entry): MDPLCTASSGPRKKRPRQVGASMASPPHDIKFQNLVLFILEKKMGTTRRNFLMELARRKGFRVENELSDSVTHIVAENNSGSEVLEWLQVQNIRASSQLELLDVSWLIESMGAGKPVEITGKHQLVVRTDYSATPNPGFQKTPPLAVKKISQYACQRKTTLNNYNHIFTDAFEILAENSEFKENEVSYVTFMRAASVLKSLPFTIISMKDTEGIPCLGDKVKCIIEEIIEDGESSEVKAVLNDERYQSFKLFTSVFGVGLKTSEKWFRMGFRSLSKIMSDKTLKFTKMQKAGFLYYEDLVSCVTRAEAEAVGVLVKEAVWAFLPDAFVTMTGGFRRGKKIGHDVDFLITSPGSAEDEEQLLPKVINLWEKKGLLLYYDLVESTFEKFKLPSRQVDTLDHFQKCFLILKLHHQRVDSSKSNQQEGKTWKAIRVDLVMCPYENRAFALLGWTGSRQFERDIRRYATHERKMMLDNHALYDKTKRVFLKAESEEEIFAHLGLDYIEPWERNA
T3 sequence (P19821 whole entry): as the sequence (P19821 whole entry A597T/L616A/F667Y/E745H) above, with T597A, A616L, Y667F, H745E counted along it

For Nc1ncnc2c1ncn2[C@H]1C[C@H](O)[C@@H](CO)O1 [dA, 2′-deoxyadenosine], the “oxidation 72 h” value [1] was 13% and the “oxidation 2 min (extrapolated)” value [1] was <1/10000.

With Nc1ccn([C@H]2C[C@H](O)[C@@H](CO)O2)c(=O)n1 [dC, 2′-deoxycytidine] the “oxidation 72 h” value [1] was 15% and the “oxidation 2 min (extrapolated)” value [1] was <1/10000.

For Cc1cn([C@H]2C[C@H](ON)[C@@H](CO)O2)c(=O)[nH]c1=O [1b, 3′-O-aminothymidine], the “cleavage 2 min” value ([2]; [HONO] 350 mM, pH 5.50, room temperature) was 90%, the “cleavage 1 min” value [2, 8] was 98% and the “cleavage 2 min” value [2, 8] was over 99%. The “cleavage 2 min” value ([2]; [HONO] 700 mM, pH 5.65, room temperature) was 96%.

For Cc1cn([C@H]2CC[C@@H](COP(=O)(O)OP(=O)(O)OP(=O)(O)O)O2)c(=O)[nH]c1=O [ddTTP, 2′,3′-dideoxythymidine-5′-triphosphate, reference compound], the “number of variant polymerases able to incorporate to a detectable extent” value [3] was 27 and the “number of variants that extended more than 50% of the primer to N+1” value [3] was “three”.

For Nc1nc2c(ncn2[C@H]2C[C@H](O)[C@@H](CO)O2)c(=O)[nH]1 [dG, 2′-deoxyguanosine], the “oxidation 72 h” value [1] was 20% and the “oxidation 2 min (extrapolated)” value [1] was <1/10000.

For NO[C@H]1C[C@H](n2cnc3c(N)ncnc32)O[C@@H]1COP(=O)(O)OP(=O)(O)OP(=O)(O)O [dATP-ONH2, 3′-O-Amino-2′-deoxyadenosine-5′-triphosphate], the “misincorporation product opposite template A (SEQ ID 3) by PD-42” value ([4]; PAGE) was “trace amounts of products”.

For NO[C@H]1C[C@H](n2ccc(N)nc2=O)O[C@@H]1COP(=O)(O)OP(=O)(O)OP(=O)(O)O [dCTP-ONH2, 3′-O-Amino-2′-deoxycytidine-5′-triphosphate], the “primer consumption on TdT tailing” value [5] was “almost all of the primer was remaining” and the “misincorporation product opposite template dC by PD-42” value ([4]; PAGE) was “trace amounts of products”.

For Cc1cn([C@H]2C[C@H](ON)[C@@H](COP(=O)(O)OP(=O)(O)OP(=O)(O)O)O2)c(=O)[nH]c1=O [TTP-ONH2, 3′-O-Amino-thymidine-5′-triphosphate], the “number of variant polymerases able to incorporate better than NEB Taq” value [3] was 30, the “number of variants that extended more than 50% of the primer to N+1” value [3] was “eight” and the “share of the PD library mutants able to incorporate better than NEB Taq” value [3] was 32.3%. The “incorporation by PD-58” value ([6]; PD library screen) was “best incorporation”, the “primer extension and termination by PD-58” value ([6]; template on streptavidin magnetic beads, 2 min) was “clean N+1 products” and the “incorporation by PD-42” value ([4]; PD library screen) was “best incorporation”. The “N+1 product on incorporation” value [7] was “at most a trace of N+1 product”.

For NO[C@H]1C[C@H](n2cnc3c(=O)[nH]c(N)nc32)O[C@@H]1COP(=O)(O)OP(=O)(O)OP(=O)(O)O [dGTP-ONH2, 3′-O-Amino-2′-deoxyguanosine-5′-triphosphate], the “primer consumption on TdT tailing” value [5] was “Almost all of the primer was exhausted”.
